Assay results taken from PubChem BioAssay (NCI).
Where “and” joins values, the source holds several entries; their conditions need not be identical. Equal values may be shown once.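 Following 48 hours of exposure in 96-well plates, responses at five concentrations were used to interpolate endpoints linearly. GI50 = concentration required for 50% inhibition of growth. TGI: concentration producing complete growth inhibition.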

The compounds below were run on 786-0 renal (assay: NCI anticancer screen, dose series, 48 h).

Structure (SMILES) | GI50 | TGI
c1ccc2c3ccn4cc5c(cc4c-3nc2c1)CCCC5 | 3.46 µM | 13.5 µM
NC(=O)C(=CNc1nc(-c2ccc(Cl)c(Cl)c2)cs1)C(N)=O | > 100 µM | > 100 µM
NC(N)=N/N=C/c1cc(Cl)cc(Cl)c1O | – | > 100 µM
O=C(Nc1cccc(Cl)c1)c1cc2ccccc2cc1O | 3.6 µM and 3.12 µM | > 100 µM
OCCCCC#Cc1ccccc1C#Cc1cccc(O)c1 | 13.8 µM | 29.2 µM
O=C(N/N=C\c1cc(Br)ccc1O)c1ccncc1 | 2.46 µM | > 100 µM
COc1ccccc1/C=C/c1cnccn1 | – | > 10 µM
CCN(CC)CC(C)(C)C(=O)/C=C/c1ccc(Cl)c(Cl)c1 | 1.62 µM | 3.04 µM
COc1cc(NC(C)CCCN)c2nccc(C)c2c1OC (stereo not drawn) | 20.3 µM | 55.7 µM
COc1cc2cn3c4ccc(O)cc4[nH]c(=O)c3c2cc1OC | 0.0715 µM | 2.02 µM
O=C(O)c1cccc(OCCO)c1 | – | > 100 µM
CC(=O)O[C@@H]1C[C@]2(C(C)C)O[C@@]1(C)[C@@H]1CCC(C)=C1[C@@H]2OC(=O)/C=C/c1ccccc1 | 84.3 µM | > 100 µM

What follows are compounds tested on OVCAR-4 ovarian (assay: NCI anticancer screen, dose series, 48 h).

Structure (SMILES) | GI50 | TGI
c1ccc2c3ccn4cc5c(cc4c-3nc2c1)CCCC5 | 2.85 µM | 11 µM
NC(=O)C(=CNc1nc(-c2ccc(Cl)c(Cl)c2)cs1)C(N)=O | 62.4 µM | > 100 µM
NC(N)=N/N=C/c1cc(Cl)cc(Cl)c1O | – | > 100 µM
O=C(Nc1cccc(Cl)c1)c1cc2ccccc2cc1O | 3.39 µM and 2.32 µM | > 100 µM
OCCCCC#Cc1ccccc1C#Cc1cccc(O)c1 | 16.1 µM | 32.1 µM
O=C(N/N=C\c1cc(Br)ccc1O)c1ccncc1 | 0.814 µM | 33.3 µM
COc1ccccc1/C=C/c1cnccn1 | – | > 10 µM
CCN(CC)CC(C)(C)C(=O)/C=C/c1ccc(Cl)c(Cl)c1 | 1.63 µM | 3.2 µM
COc1cc(NC(C)CCCN)c2nccc(C)c2c1OC (stereo not drawn) | 2.7 µM | 10.2 µM
COc1cc2cn3c4ccc(O)cc4[nH]c(=O)c3c2cc1OC | 0.0594 µM | 2.11 µM
O=C(O)c1cccc(OCCO)c1 | – | > 100 µM
CC(=O)O[C@@H]1C[C@]2(C(C)C)O[C@@]1(C)[C@@H]1CCC(C)=C1[C@@H]2OC(=O)/C=C/c1ccccc1 | 11.6 µM | > 100 µM

The compounds below were run on SK-MEL-5 melanoma (assay: NCI anticancer screen, dose series, 48 h).

Structure (SMILES) | GI50 | TGI
c1ccc2c3ccn4cc5c(cc4c-3nc2c1)CCCC5 | 2.42 µM | 10.3 µM
NC(=O)C(=CNc1nc(-c2ccc(Cl)c(Cl)c2)cs1)C(N)=O | 71.6 µM | > 100 µM
NC(N)=N/N=C/c1cc(Cl)cc(Cl)c1O | – | > 100 µM
O=C(Nc1cccc(Cl)c1)c1cc2ccccc2cc1O | 1.24 µM and 0.661 µM | 4.15 µM and 2.5 µM
OCCCCC#Cc1ccccc1C#Cc1cccc(O)c1 | 17.8 µM | 32.7 µM
O=C(N/N=C\c1cc(Br)ccc1O)c1ccncc1 | 2.6 µM | 21.8 µM
COc1ccccc1/C=C/c1cnccn1 | – | > 10 µM
CCN(CC)CC(C)(C)C(=O)/C=C/c1ccc(Cl)c(Cl)c1 | 1.84 µM | 3.29 µM
COc1cc(NC(C)CCCN)c2nccc(C)c2c1OC (stereo not drawn) | 3.97 µM | 15.7 µM
COc1cc2cn3c4ccc(O)cc4[nH]c(=O)c3c2cc1OC | < 0.015 µM | 0.563 µM
O=C(O)c1cccc(OCCO)c1 | – | > 100 µM
CC(=O)O[C@@H]1C[C@]2(C(C)C)O[C@@]1(C)[C@@H]1CCC(C)=C1[C@@H]2OC(=O)/C=C/c1ccccc1 | 22.5 µM | 78.5 µM

These compounds were tested on NCI-H23 lung (assay: NCI anticancer screen, dose series, 48 h).

Structure (SMILES) | GI50 | TGI
c1ccc2c3ccn4cc5c(cc4c-3nc2c1)CCCC5 | 3.13 µM | 14.7 µM
NC(=O)C(=CNc1nc(-c2ccc(Cl)c(Cl)c2)cs1)C(N)=O | > 100 µM | > 100 µM
NC(N)=N/N=C/c1cc(Cl)cc(Cl)c1O | – | > 100 µM
O=C(Nc1cccc(Cl)c1)c1cc2ccccc2cc1O | 1.76 µM and 1.03 µM | –
OCCCCC#Cc1ccccc1C#Cc1cccc(O)c1 | 18 µM | 36.1 µM
O=C(N/N=C\c1cc(Br)ccc1O)c1ccncc1 | 3.61 µM | > 100 µM
COc1ccccc1/C=C/c1cnccn1 | – | > 10 µM
CCN(CC)CC(C)(C)C(=O)/C=C/c1ccc(Cl)c(Cl)c1 | 1.9 µM | 4.17 µM
COc1cc(NC(C)CCCN)c2nccc(C)c2c1OC (stereo not drawn) | 4.21 µM | 22 µM
COc1cc2cn3c4ccc(O)cc4[nH]c(=O)c3c2cc1OC | 0.0716 µM | 1.9 µM
O=C(O)c1cccc(OCCO)c1 | – | > 100 µM
CC(=O)O[C@@H]1C[C@]2(C(C)C)O[C@@]1(C)[C@@H]1CCC(C)=C1[C@@H]2OC(=O)/C=C/c1ccccc1 | 35.3 µM | > 100 µM

The compounds below were run on NCI-H522 lung (assay: NCI anticancer screen, dose series, 48 h).

Structure (SMILES) | TGI | GI50
c1ccc2c3ccn4cc5c(cc4c-3nc2c1)CCCC5 | 5.75 µM | –
NC(=O)C(=CNc1nc(-c2ccc(Cl)c(Cl)c2)cs1)C(N)=O | > 100 µM | 11.8 µM
NC(N)=N/N=C/c1cc(Cl)cc(Cl)c1O | > 100 µM | –
O=C(Nc1cccc(Cl)c1)c1cc2ccccc2cc1O | 7.09 µM and 7.92 µM | 1.03 µM and 0.583 µM
OCCCCC#Cc1ccccc1C#Cc1cccc(O)c1 | 28.9 µM | 14.3 µM
O=C(N/N=C\c1cc(Br)ccc1O)c1ccncc1 | 19.8 µM | 2.17 µM
COc1ccccc1/C=C/c1cnccn1 | > 10 µM | –
CCN(CC)CC(C)(C)C(=O)/C=C/c1ccc(Cl)c(Cl)c1 | 3.2 µM | 1.71 µM
COc1cc(NC(C)CCCN)c2nccc(C)c2c1OC (stereo not drawn) | 19.6 µM | 5.28 µM
COc1cc2cn3c4ccc(O)cc4[nH]c(=O)c3c2cc1OC | 0.0263 µM | < 0.01 µM
O=C(O)c1cccc(OCCO)c1 | > 100 µM | –
CC(=O)O[C@@H]1C[C@]2(C(C)C)O[C@@]1(C)[C@@H]1CCC(C)=C1[C@@H]2OC(=O)/C=C/c1ccccc1 | > 100 µM | 20.7 µM
